Test results published in patent US6516214B1, “Detection of stroke events using diffuse optical tomography” (The General Hospital Corporation, priority 2000, dated 2003).

Experiment: Monitoring cerebral blood flow in an adult human by DOT after an indocyanine green bolus
Type: in vivo
Description: A 100 mW, 808 nm laser diode coupled to a 1 mm diameter fused silica fiber was used to deliver light to an adult human head. Four diode detectors were coupled to the scalp via 3 mm diameter plastic fibers. The collecting fibers were positioned 1, 2, 3, and 4 cm from the emitting fiber. These four separations were chosen to discriminate between scalp signals and […]. Measurements made at 1 and 2 cm separations were sensitive to changes in the optical properties of only the skull and scalp. On the other hand, measurements made at 3 and 4 cm separations were sensitive to changes in the optical properties of the brain, skull, and scalp. The remitted intensity at the four positions was sampled at 4 Hz. Baseline data was collected for 10 seconds, followed by the bolus injection. The bolus consisted of a 2 ml saline solution of 40 mg of indocyanine green injected into a vein in the arm of the volunteer. This injection was immediately followed by a 10 ml saline flush.
The data is summarized in the graph of FIG. 15, showing the attenuation of the optical signal caused by passing of the bolus of indocyanine green through the brain of the adult human volunteer. […] The small increases in each signal at about 34 seconds resulted from the re-circulation of the indocyanine green bolus.

delay of the drop in the signals relative to 3 and 4 cm separations (1 and 2 cm optode separations (scalp and skull only)): about 2 seconds | time following injection of the dye bolus at which the signal dropped significantly (3 and 4 cm optode separations, 40 mg in 2 ml saline i.v. in the arm, 808 nm): 20 s | time of small signal increases from re-circulation of the bolus (each signal, all separations): about 34 seconds | concentration of second passage bolus, times smaller than the first passage bolus (re-circulation): about 10 times
Compound: CC1(C)C(/C=C/C=C/C=C/C=C2\N(CCCCS(=O)(=O)O)c3ccc4ccccc4c3C2(C)C)=[N+](CCCCS(=O)(=O)[O-])c2ccc3ccccc3c21 [indocyanine green]
